pEC50: −log10 of the molar value.

One assay has as its system γ-secretase. Kind of assay: Screening for γ-secretase-modulating activity in SKNBE2 cells carrying APP 695-wild type. Type of assay: cell-based. The conditions noted are these: 0.3 uM; SKNBE2 cells carrying the APP 695-wild type.
Regarding `CC(C)CCC(c1ccc(C(F)(F)F)cc1)N1CCCC(c2cc(-c3ccc(C(F)(F)F)cc3)cc([C@@H](CC(C)C)C(=O)O)c2)C1` (single isomer, unassigned) [Example 37, (R*)4-Methyl-2-(5-{1-[4-methyl-1-(4-trifluoromethyl-phenyl)-pentyl]-piperidin-3-yl}-4′-trifluoromethyl-biphenyl-3-yl)-pentanoic Acid], the “% @ 0.3 uM (WTAPP)” value amounted to 44% @ 0.3 uM. For the compound `CC(C)CC(C(=O)O)c1cc(-c2ccc(C(F)(F)F)cc2)cc(N(C)c2ccc(C(F)(F)F)cc2)c1` (centres unmarked) [Example 13, 4-Methyl-2-{5-[methyl-(4-trifluoromethyl-phenyl)-amino]-4′-trifluoromethyl-biphenyl-3-yl}-pentanoic Acid], the “% @ 0.3 uM (WTAPP)” value was found to be 21% @ 0.3 uM.

Still in this assay, the particulars now being: 3 uM; SKNBE2 cells carrying the APP 695-wild type.
In the case of `CC(C)CC(C(=O)O)c1cc(Nc2cc(F)cc(F)c2)cc(-c2ccc(C(F)(F)F)cc2)c1` (centres unmarked) [Example 9, 2-[5-(3,5-Difluoro-phenylamino)-4′-trifluoromethyl-biphenyl-3-yl]-4-methyl-pentanoic Acid], the “inhibition @ 3 uM (WTAPP)” value is listed as 73% inhibition @ 3 uM.

`CC(C)CC(C(=O)O)c1cc(Oc2cccc(C(C)C)c2)cc(-c2ccc(C(F)(F)F)cc2)c1` (centres unmarked) [Example 16, 2-[5-(3-Isopropyl-phenoxy)-4′-trifluoromethyl-biphenyl-3-yl]-4-methyl-pentanoic Acid]: the “inhibition @ 3 uM (WTAPP)” value was determined as 64% inhibition @ 3 uM.

The assay is the same for the next values; noted with them: SKNBE2 cells carrying the APP 695-wild type; read-out: EC 50 WTAPP.
On to “4-Methyl-2-[4′-trifluoromethyl-5-(4-trifluoromethyl-phenylamino)-biphenyl-3-yl]-pentanoic Acid [Example 10]”, for which the pEC50 is 6.55. The same measure, in the same setting: to `CCC(c1ccc(C(F)(F)F)cc1)N1CCCC(c2cc(-c3ccc(C(F)(F)F)cc3)cc([C@@H](CC(C)C)C(=O)O)c2)C1` (single isomer, unassigned) [Example 26, (R*)4-Methyl-2-(4′-trifluoromethyl-5-{1-[1-(4-trifluoromethyl-phenyl)-propyl]-piperidin-3-yl}-biphenyl-3-yl)-pentanoic Acid] belongs 6.44. The same measure, in the same setting: to `CCC(c1ccc(C(F)(F)F)cc1)N1CCCC(c2cc(-c3ccc(C(F)(F)F)cc3)cc([C@H](CC(C)C)C(=O)O)c2)C1` (single isomer, unassigned) [Example 35, (S*)4-Methyl-2-(4′-trifluoromethyl-5-{1-[1-(4-trifluoromethyl-phenyl)-propyl]-piperidin-3-yl}-biphenyl-3-yl)-pentanoic Acid] belongs 6.23.

Regarding `CC(C)C[C@@H](C(=O)O)c1cc(OCc2cc(F)cc(F)c2)cc(-c2ccc(C(F)(F)F)cc2)c1` [Example 1, (R)2-[5-(3,5-Difluoro-benzyloxy)-4′-trifluoromethyl-biphenyl-3-yl]-4-methyl-pentanoic Acid], the pEC50 is 6.28. On the same count and under the same terms, to `CC(C)C[C@H](C(=O)O)c1cc(OCc2cc(F)cc(F)c2)cc(-c2ccc(C(F)(F)F)cc2)c1` [Example 2, (S)-2-[5-(3,5-Difluoro-benzyloxy)-4′-trifluoromethyl-biphenyl-3-yl]-4-methyl-pentanoic Acid] belongs 5.82; to `CC(C)C[C@@H](C(=O)O)c1cc(OCc2ccc(F)cc2C(F)(F)F)cc(-c2ccc(C(F)(F)F)cc2)c1` [Example 3, (R)-2-[5-(4-fluoro-2-trifluoromethyl-benzyloxy)-4′-trifluoromethyl-biphenyl-3-yl]-4-methyl-pentanoic Acid], 6.24.

Turning to `CC(C)CC(C(=O)O)c1cc(OCc2cc(F)cc(F)c2)cc(-c2ccc(Cl)c(C(F)(F)F)c2)c1` (centres unmarked) [Example 4, 2-[4′-Chloro-5-(3,5-difluoro-2-benzyloxy)-3′-trifluoromethyl-biphenyl-3-yl]-4-methyl-pentanoic Acid], the pEC50 was 6.51. Still for that read-out and setting: to `CC(C)CC(C(=O)O)c1cc(-c2ccc(C(F)(F)F)cc2)cc(-c2cc(F)cc(F)c2)c1` (centres unmarked) [Example 5, 2-(3,5-Difluoro-4″-trifluoromethyl-[1,1′;3′,1″]terphenyl-5′-yl)-4-methyl-pentanoic Acid] belongs 6.72; to `CC(C)CC(C(=O)O)c1cc(-c2ccc(C(F)(F)F)cc2)cc(-c2ccc(OC(F)(F)F)c(F)c2)c1` (centres unmarked) [Example 6, 2-(3-Fluoro-4-trifluoromethoxy-4″-trifluoromethyl-[1,1′;3′,1″]terphenyl-5′-yl)-4-methyl-pentanoic Acid], 6.85.

Consider `CC(C)CC(C(=O)O)c1cc(Nc2ccc(C(C)C)cc2)cc(-c2ccc(C(F)(F)F)cc2)c1` (centres unmarked) [Example 11, 2-[5-(4-Isopropyl-phenylamino)-4′-trifluoromethyl-biphenyl-3-yl]-4-methyl-pentanoic Acid], for which the pEC50 is 6.54. In the case of `CC(C)C[C@@H](C(=O)O)c1cc(Nc2cc(C(F)(F)F)ccc2C(F)(F)F)cc(-c2ccc(C(F)(F)F)cc2)c1` [Example 12, (R)2-[5-(2,5-Bis-trifluoromethyl-phenylamino)-4′-trifluoromethyl-biphenyl-3-yl]-4-methyl-pentanoic Acid], the pEC50 is 6.82. In the case of `CC(C)CCN(c1ccc(C(F)(F)F)cc1)c1cc(-c2ccc(C(F)(F)F)cc2)cc(C(CC(C)C)C(=O)O)c1` (centres unmarked) [Example 14, 4-Methyl-2-{5-[(3-methyl-butyl)-(4-trifluoromethyl-phenyl)-amino]-4′-trifluoromethyl-biphenyl-3-yl}-pentanoic Acid], the pEC50 is 6.77.

As for `CC(C)CCN(c1ccc(Cl)cc1)c1cc(-c2ccc(C(F)(F)F)cc2)cc(C(CC(C)C)C(=O)O)c1` (centres unmarked) [Example 15, 2-{5-[(4-Chloro-phenyl)-(3-methyl-butyl)-amino]-4′-trifluoromethyl-biphenyl-3-yl}-4-methyl-pentanoic Acid], the pEC50 was 6.82.

Consider `CC(C)CC(C(=O)O)c1cc(Oc2cc(F)cc(C(F)(F)F)c2)cc(-c2ccc(Cl)c(C(F)(F)F)c2)c1` (centres unmarked) [Example 17, 4-Methyl-2-[4′-chloro-3′-trifluoromethyl-5-(3-fluoro-5-trifluoromethylphenoxy)-biphenyl-3-yl]-pentanoic Acid], for which the pEC50 is 6.85. Still for that read-out and setting: to `CC(C)CC(C(=O)O)c1cc(Oc2cc(F)cc(C(F)(F)F)c2)cc(-c2ccc(C(F)(F)F)cc2)c1` (centres unmarked) [Example 18, 2-[5-(3-Fluoro-5-trifluoromethyl-phenoxy)-4′-trifluoromethyl-biphenyl-3-yl]-4-methyl-pentanoic Acid] belongs 6.48; to `CC(C)CC(C(=O)O)c1cc(-c2ccc(C(F)(F)F)cc2)cc(-c2cc(F)nc(F)c2)c1` (centres unmarked) [Example 19, 2-[5-(2,6-Difluoro-pyridin-4-yl)-4′-trifluoromethyl-biphenyl-3-yl]-4-methyl-pentanoic Acid], 6.66. The same measure, in the same setting: the value for `CC(C)CC(C(=O)O)c1cc(-c2ccc(C(F)(F)F)cc2)cc(-c2ccc(C(F)(F)F)cn2)c1` (centres unmarked) [Example 20, 4-Methyl-2-[4′-trifluoromethyl-5-(5-trifluoromethyl-pyridin-2-yl)-biphenyl-3-yl]-pentanoic Acid] was 6.49; that for `CC(C)CCC(Oc1cc(-c2ccc(C(F)(F)F)cc2)cc(C(CC(C)C)C(=O)O)c1)c1cc(F)cc(F)c1` (centres unmarked) [Example 21, 2-{5-[1-(3,5-Difluoro-phenyl)-4-methyl-pentyloxy]-4′-trifluoromethyl-biphenyl-3-yl}-4-methyl-pentanoic Acid] was 6.64; that for `CC(C)CC(C(=O)O)c1cc(C(=O)c2cc(Cl)cc(Cl)c2)cc(-c2ccc(C(F)(F)F)cc2)c1` (centres unmarked) [Example 22, 2-[5-(3,5-Dichloro-benzoyl)-4′-trifluoromethyl-biphenyl-3-yl]-4-methyl-pentanoic Acid] was 6.15.
